Experimental data as given in patent US20150208645A1, “PHYTOSANITARY COMPOSITIONS COMPRISING AN ETHER-AMIDE COMPOUND” (priority 2012, published 2015).

Tests used:
Assay type in all cases: physicochemical
[1] = Visual observation at 0° C. after 7 days (test CIPAC MT39); conditions: 10% Alkamuls RC, remainder the solvent, 7 days at 0° C.
Description: By mixing the ingredients, formulations of various phytosanitary active ingredients of the type emulsifiable concentrate type (EC) are prepared. […] The following tests are conducted: Visual observation at 0° C.—The formulation is placed for 7 days at 0° C. and the aspect of the formulation is noted and the presence of crystals is optionally located (test CIPAC MT39)

[2] = Visual observation at 25° C. of EC formulation (aspect, presence of crystals); conditions: 10% Alkamuls RC, remainder the solvent
Description: By mixing the ingredients, formulations of various phytosanitary active ingredients of the type emulsifiable concentrate type (EC) are prepared. […] The following tests are conducted: Visual observation at 25° C.—The aspect of the formulation is noted and the presence of crystals is optionally located

[3] = Visual observation at 0° C. with nucleation (crystal of active material introduced, again 7 days at 0° C.); conditions: 10% Alkamuls RC, remainder the solvent, seeded with crystal, further 7 days at 0° C.
Description: By mixing the ingredients, formulations of various phytosanitary active ingredients of the type emulsifiable concentrate type (EC) are prepared. The formulations comprise: […]
10% by weight of the surfactant Alkamuls® RC, marketed by Rhodia
and, as a solvent, the remainder of the compound of the examples.
The following tests are conducted:
Visual observation at 0° C. with nucleation: A crystal of active material is introduced into the formulation having spent 7 days at 0° C. formulation, and the formulation is again placed for 7 days at 0° C. The aspect of the formulation is noted and the presence of crystals is optionally located.

[4] = EC formulation: Azoxystrobin 25% by weight
[5] = EC formulation: Difenconazole 25% by weight
[6] = EC formulation: Dimethoate 40% by weight
[7] = EC formulation: Oxyfluorfen 22% by weight
[8] = EC formulation: Phenmedipham 16% by weight
[9] = EC formulation: Propanil 36% by weight
[10] = EC formulation: Propoxur 20% by weight
[11] = EC formulation: Tebuconazole 25% by weight
[12] = EC formulation: Trifluralin 40% by weight

CCOCCCC(=O)N(C)C [Compound 4]
Cloudy: Aspect at 0° C. [1, 7] | Aspect at 25° C. [2, 7] | Aspect at 0° C. with nucleation [3, 7]
Crystals: Aspect at 0° C. [1, 4] | Aspect at 25° C. [2, 4] | Aspect at 0° C. with nucleation [3, 4] | Aspect at 0° C. with nucleation [3, 12]
Limpid: Aspect at 0° C. [1, 5] | Aspect at 0° C. [1, 6] | Aspect at 0° C. [1, 8] | Aspect at 0° C. [1, 9] | Aspect at 0° C. [1, 10] | Aspect at 0° C. [1, 11] | Aspect at 0° C. [1, 12] | Aspect at 25° C. [2, 5] | Aspect at 25° C. [2, 6] | Aspect at 25° C. [2, 8] | Aspect at 25° C. [2, 9] | Aspect at 25° C. [2, 10] | Aspect at 25° C. [2, 11] | Aspect at 25° C. [2, 12] | Aspect at 0° C. with nucleation [3, 5] | Aspect at 0° C. with nucleation [3, 6] | Aspect at 0° C. with nucleation [3, 8] | Aspect at 0° C. with nucleation [3, 9] | Aspect at 0° C. with nucleation [3, 10] | Aspect at 0° C. with nucleation [3, 11]
